Measured values reported in PubChem BioAssay (NCI).
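96-well plates; 48 h exposure; 5 concentrations. Endpoints by linear interpolation between flanking doses. Not reached: highest tested concentration assigned. Abbreviation: GI50, concentration required for 50% inhibition of growth. At the TGI there is no net growth.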

How the values were obtained:
Assay in all cases: growth of human tumour cells (NCI), 48 h
COLO 205 colon = tested on: COLO 205 colon
PC-3 prostate = tested on: PC-3 prostate
SK-MEL-28 melanoma = tested on: SK-MEL-28 melanoma
RXF 393 renal = tested on: RXF 393 renal
UACC-257 melanoma = tested on: UACC-257 melanoma
SN12C renal = tested on: SN12C renal
CCRF-CEM leukemia = tested on: CCRF-CEM leukemia
OVCAR-4 ovarian = tested on: OVCAR-4 ovarian
MOLT-4 leukemia = tested on: MOLT-4 leukemia
RPMI-8226 leukemia = tested on: RPMI-8226 leukemia

SMILES: CC(C)(C)OC(=O)NCC(CNC(=O)OC(C)(C)C)c1nc(C(N)=O)cs1
- TGI (COLO 205 colon): > 100 µM
- TGI (PC-3 prostate): > 100 µM
- TGI (SK-MEL-28 melanoma): > 100 µM
- TGI (RXF 393 renal): > 100 µM
- TGI (UACC-257 melanoma): > 100 µM
- TGI (SN12C renal): > 100 µM
- TGI (CCRF-CEM leukemia): > 100 µM
- TGI (OVCAR-4 ovarian): > 100 µM
- TGI (MOLT-4 leukemia): > 100 µM

SMILES: C=CCC1C(O[Si](C)(C)C(C)(C)C)C(CO[Si](C)(C)C(C)(C)C)OC1n1ccc(=O)[nH]c1=O (configuration not stated)
- TGI (COLO 205 colon): 3.13 µM
- TGI (PC-3 prostate): 3.72 µM
- TGI (SK-MEL-28 melanoma): 3.05 µM
- TGI (RPMI-8226 leukemia): 4.89 µM
- TGI (UACC-257 melanoma): 3.37 µM
- TGI (SN12C renal): 2.8 µM
- TGI (CCRF-CEM leukemia): 2.86 µM
- TGI (MOLT-4 leukemia): 2.84 µM

SMILES: O=c1c(-c2ccccc2)c(SCCO)n(-c2ccccc2)c(=S)n1-c1ccccc1
- TGI (COLO 205 colon): > 100 µM
- TGI (PC-3 prostate): > 100 µM
- TGI (SK-MEL-28 melanoma): > 100 µM
- TGI (RPMI-8226 leukemia): > 100 µM
- TGI (UACC-257 melanoma): > 100 µM
- TGI (SN12C renal): > 100 µM
- TGI (CCRF-CEM leukemia): > 100 µM
- TGI (OVCAR-4 ovarian): > 100 µM
- TGI (MOLT-4 leukemia): > 100 µM

SMILES: CCN=C1C=CC(=C(c2ccc(N(CC)CC)cc2)c2ccc(N(CC)CC)cc2)c2ccccc21
- GI50 (RPMI-8226 leukemia): 0.0233 µM
- TGI (RPMI-8226 leukemia): 0.0702 µM
- GI50 (RXF 393 renal): 0.0585 µM
- TGI (RXF 393 renal): 0.384 µM
- GI50 (UACC-257 melanoma): 0.077 µM
- TGI (UACC-257 melanoma): 1.18 µM
- GI50 (CCRF-CEM leukemia): 0.0471 µM
- TGI (CCRF-CEM leukemia): 1.52 µM

SMILES: CCOP(=O)(OCC)/C(=C/c1cccs1)CC(C)=O
- TGI (COLO 205 colon): > 100 µM
- TGI (PC-3 prostate): > 100 µM
- TGI (SK-MEL-28 melanoma): > 100 µM
- TGI (RXF 393 renal): > 100 µM
- TGI (UACC-257 melanoma): > 100 µM
- TGI (SN12C renal): > 100 µM
- TGI (CCRF-CEM leukemia): > 100 µM
- TGI (OVCAR-4 ovarian): > 100 µM
- TGI (MOLT-4 leukemia): > 100 µM

SMILES: O=C1CC(=O)n2cnc3cccc(c32)N1
- TGI (COLO 205 colon): > 100 µM
- TGI (PC-3 prostate): > 100 µM
- TGI (SK-MEL-28 melanoma): > 100 µM
- TGI (RPMI-8226 leukemia): > 100 µM
- TGI (RXF 393 renal): > 100 µM
- TGI (UACC-257 melanoma): > 100 µM
- TGI (SN12C renal): > 100 µM
- TGI (CCRF-CEM leukemia): > 100 µM
- TGI (OVCAR-4 ovarian): > 100 µM

SMILES: Cc1ccc(S(=O)CC(CF)OCn2cc(C)c(=O)[nH]c2=O)cc1 (configuration not stated)
- TGI (COLO 205 colon): > 100 µM
- TGI (PC-3 prostate): > 100 µM
- TGI (SK-MEL-28 melanoma): > 100 µM
- TGI (RPMI-8226 leukemia): > 100 µM
- TGI (SN12C renal): > 100 µM
- TGI (OVCAR-4 ovarian): > 100 µM
- TGI (MOLT-4 leukemia): > 100 µM

SMILES: CN(Cc1cnc2nc(N)nc(N)c2n1)c1ccc(C(=O)NC(CO)CCCO)cc1 (configuration not stated)
- TGI (COLO 205 colon): > 100 µM
- TGI (PC-3 prostate): > 100 µM
- TGI (SK-MEL-28 melanoma): > 100 µM
- TGI (RPMI-8226 leukemia): > 100 µM
- TGI (RXF 393 renal): > 100 µM
- TGI (UACC-257 melanoma): > 100 µM
- TGI (SN12C renal): > 100 µM
- TGI (CCRF-CEM leukemia): > 100 µM
- TGI (MOLT-4 leukemia): > 100 µM

SMILES: O=[N+]([O-])c1cccc(N=Nc2c(O)c(S(=O)(=O)O)cc3cc(S(=O)(=O)O)ccc23)c1
- TGI (COLO 205 colon): > 100 µM
- TGI (PC-3 prostate): > 100 µM
- TGI (SK-MEL-28 melanoma): > 100 µM
- TGI (RXF 393 renal): > 100 µM
- TGI (UACC-257 melanoma): > 100 µM
- TGI (SN12C renal): > 100 µM
- TGI (CCRF-CEM leukemia): > 100 µM
- TGI (OVCAR-4 ovarian): > 100 µM
- TGI (MOLT-4 leukemia): > 100 µM

SMILES: C=C(C)CC1(O[Si](C)(C)C)C(=O)C(OCC)=C1OCC (configuration not stated)
- TGI (COLO 205 colon): > 100 µM
- TGI (PC-3 prostate): > 100 µM
- TGI (SK-MEL-28 melanoma): > 100 µM
- TGI (UACC-257 melanoma): > 100 µM
- TGI (SN12C renal): > 100 µM
- TGI (CCRF-CEM leukemia): > 100 µM
- TGI (OVCAR-4 ovarian): > 100 µM
- TGI (MOLT-4 leukemia): > 100 µM

SMILES: COc1cc(C2C3=C(COC3=O)Oc3cc4c(cc32)OCO4)cc(OC)c1O (configuration not stated)
- TGI (COLO 205 colon): 0.0776 µM
- TGI (PC-3 prostate): 4.67 µM
- TGI (SK-MEL-28 melanoma): 89.8 µM
- TGI (RPMI-8226 leukemia): > 41.9 µM
- TGI (UACC-257 melanoma): > 61.7 µM
- TGI (SN12C renal): 23.2 µM
- TGI (CCRF-CEM leukemia): > 66.9 µM
- TGI (OVCAR-4 ovarian): 47.8 µM
- TGI (MOLT-4 leukemia): 26 µM

SMILES: C/C(=N\Nc1nc2cc(C(F)(F)F)ccc2s1)c1ccccn1
- TGI (COLO 205 colon): 7.01 µM
- TGI (SK-MEL-28 melanoma): 5.74 µM
- TGI (RPMI-8226 leukemia): > 85.2 µM
- TGI (RXF 393 renal): 12.5 µM
- TGI (UACC-257 melanoma): > 31.2 µM
- TGI (SN12C renal): 1.51 µM
- TGI (CCRF-CEM leukemia): > 100 µM
- TGI (OVCAR-4 ovarian): 32.6 µM
